How the values were obtained:
Format in all cases: in vivo, rat
[1] = test system: rats with middle cerebral artery occlusion (MCAO) model; test: Pre-experiments: reduction of cerebral infarction area in MCAO model rats; settings: result in words; C compared with B, D compared among 1:2 conjugates
Excerpt: Based on the effects of both butylphthalide and dexborneol on improving cerebral circulation and protecting cardio cerebral vessels, the inventor team of this application adopted progressive pre-experiments. First, butylphthalide and dexborneol were simply combined in a molar ratio 1:1 to form a composition.

MCAO/R model rats [2] = test: Neurological function evaluation (Longa 5-level score) in MCAO/R model rats; settings: for neurological function scores: 24 hours of reperfusion, Longa score; for neurological function scores compared with the NBP group / efficiency (vs NBP group): NBP 5 mg/kg; for neurological function scores compared with the NBP group: result in words; for efficiency (vs L-NBP group): L-NBP 2.5 mg/kg
Procedure: (§1) • SHAM group: sham surgery group • Middle cerebral artery occlusion (MCAO) model group • Butylphthalide (NBP): 5 mg/kg • Levobutylphthalide (L-NBP): 2.5 mg/kg • NRB (Compound 1): 15 mg/kg (equivalent to a dose of 4.9 mg/kg of NBP through conversion) • Low dose of L-NRB (compound 2): 7.5 mg/kg (equivalent to a dose of 2.45 mg/kg of L-NBP through conversion) • High dose of L-NRB (compound 2): 15 mg/kg (equivalent to a dose of 4.9 mg/kg of L-NBP through conversion) • Aspirin group (ASP): 10 mg/kg 2. Administration Method
(§2) The rats in the sham surgery group and the MCAO model group were administered the same amount of normal saline by intraperitoneal administration for 5 consecutive days before modeling, and then the MCAO operation was performed.
(§3) The middle cerebral artery occlusion (MCAO) model was made by thread-occlusion method. The operation process was strictly conducted in aseptic mode. The main operation process was as follows: the rat was anesthetized by intraperitoneal injection of chloral hydrate, the common carotid artery (CCA), external carotid artery (ECA) and internal carotid artery (ICA) were separated, the common carotid artery was clamped with a microarterial clamp, and the branches of the external carotid artery were electrocoagulated with a bipolar electrocoagulation pen. The main trunk of the external carotid artery was separated and ligated at a distance of 3-4 mm from the bifurcation of the common carotid artery. The internal carotid artery was temporarily clamped with a micro artery clamp. A small incision into the external carotid artery was cut with an ophthalmic scissors, and a 4-0 monofilament nylon thread coated with methylpolysiloxane was inserted. A loose knot was made at the incision of the external carotid artery to block the blood reflux of the internal carotid artery. The micro artery clamp of the internal carotid artery was removed, and the nylon thread is gently pushed into the internal carotid artery to reach the anterior cerebral artery in the skull, to block the opening of the middle cerebral artery (MCA), and the insert depth is approximately 18-22 mm. The microarterial clamp of the common carotid artery was removed, the subcutaneous tissue and skin were sutured layer by layer after disinfection, and the nylon thread was slowly draw out at 2 hours after operation, and the reperfusion was conducted. In the sham surgery group, all operations were the same except that nylon thread was not inserted. The rectal temperature of all rats was maintained at 37° C. throughout the entire experimental process.
After 24 hours of reperfusion, all rats were evaluated for neurobehavioral scores using the Longa 5-level scoring method. Longa scoring standard: 0, normal, without neurological impairment; 1, left forelimb extension disorder, weakened function; 2, circling to the left, paralysis of the left forelimb and severe impairment of function, and the rat keeps twisting towards the damaged area after lifting the rat's tail; 3, when walking, tilt to the left; 4, limb paralysis, unconscious consciousness.

MCAO/R model rats [3] = test: Cerebral infarction area (TTC staining) in MCAO/R model rats; settings: for infarction area (%): 24 hours of reperfusion, TTC staining; for efficiency (vs L-NBP model group): L-NBP 2.5 mg/kg; for efficiency (vs NBP model group) / cerebral infarction area compared with the NBP group: NBP 5 mg/kg; for cerebral infarction area compared with the NBP group: result in words
Procedure: as §1, §2, §3
After 24 hours of reperfusion, the cerebral infarction area was measured using tetrazolium red (TTC) staining. The rats were killed by cutting the neck, and the whole brain was quickly taken out. After being placed in the refrigerator at −20° C. for a short time and placed on the ice plate, and the olfactory bulb was removed. The forebrain was cut into six slices with a thickness of 2 mm along the coronal plane. The brain slices were placed in 1.5 mL of 2% TTC solution and incubated in dark for 30 minutes. Then the brain slices were fixed in 10% paraformaldehyde overnight, and then photographed for analysis. Use Image-J software to measure and calculate the volume of cerebral infarction.

[4] = neurological function score, dose 7.5 mg/kg
[5] = neurological function score, dose 15 mg/kg
[6] = cerebral infarction area, dose 7.5 mg/kg
[7] = cerebral infarction area, dose 15 mg/kg
[8] = neurological function score, dose 2.5 mg/kg

CCCCC(OC(C)=O)c1ccccc1C(=O)O[C@@H]1C[C@@H]2CC[C@@]1(C)C2(C)C (some centres unmarked) [formula B]
activity (pre-experiments, comparison between conjugates) [1]: only slightly improved

CC(=O)Oc1ccccc1C(=O)O [ASP, Aspirin, reference compound]
neurological function scores (MCAO/R model rats [2]; dose 10 mg/kg): 1.6 ± 0.5
inhibition rate (vs model group) (MCAO/R model rats [2]; neurological function score, dose 10 mg/kg): 52.9%
infarction inhibition rate (vs model group) (MCAO/R model rats [3]; dose 10 mg/kg): 48.5%
infarction area (%) (MCAO/R model rats [3]; dose 10 mg/kg): 15.2 ± 7.0 %

CCCC[C@H](OC(=O)CCC(=O)OC1CC2CCC1(C)C2(C)C)c1ccccc1C(=O)OC1CC2CCC1(C)C2(C)C (stereo in doubt) [L-NRB]
neurological function scores (MCAO/R model rats [2]; dose 7.5 mg/kg): 1.4 ± 0.7**$
neurological function scores compared with the NBP group (MCAO/R model rats [2]; dose 7.5 mg/kg, p<0.05): significant reductions
neurological function scores (MCAO/R model rats [2]; dose 15 mg/kg): 1.1 ± 0.4**$$&
neurological function scores compared with the NBP group (MCAO/R model rats [2]; dose 15 mg/kg): significant reductions
inhibition rate (vs model group) (MCAO/R model rats [2]; [4]): 58.8%
efficiency (vs L-NBP group) (MCAO/R model rats [2]; [4]): 22.2%
efficiency (vs NBP group) (MCAO/R model rats [2]; [4]): 39.1%
inhibition rate (vs model group) (MCAO/R model rats [2]; [5]): 67.6%
efficiency (vs ASP group) (MCAO/R model rats [2]; neurological function score, dose 15 mg/kg, ASP 10 mg/kg): 31.3%
efficiency (vs L-NBP group) (MCAO/R model rats [2]; [5]): 38.9%
efficiency (vs NBP group) (MCAO/R model rats [2]; [5]): 52.2%
efficiency (vs L-NBP model group) (MCAO/R model rats [3]; [6]): 29.1%
efficiency (vs NBP model group) (MCAO/R model rats [3]; [6]): 42.3%
Efficiency (vs ASP model group) (MCAO/R model rats [3]; cerebral infarction area, dose 15 mg/kg, ASP 10 mg/kg): 56.6%
efficiency (vs L-NBP model group) (MCAO/R model rats [3]; [7]): 58.2%
efficiency (vs NBP model group) (MCAO/R model rats [3]; [7]): 66.0%
infarction inhibition rate (vs model group) (MCAO/R model rats [3]; dose 7.5 mg/kg): 62.0%
infarction area (%) (MCAO/R model rats [3]; dose 7.5 mg/kg): 11.2 ± 4.4**$ %
cerebral infarction area compared with the NBP group (MCAO/R model rats [3]; dose 7.5 mg/kg, p<0.05): significant reductions
infarction inhibition rate (vs model group) (MCAO/R model rats [3]; dose 15 mg/kg): 77.6%
infarction area (%) (MCAO/R model rats [3]; dose 15 mg/kg): 6.6 ± 3.5**$$&& %
cerebral infarction area compared with the NBP group (MCAO/R model rats [3]; dose 15 mg/kg): significant reductions

CCCCC(OC(=O)CCC(=O)O[C@@H]1C[C@@H]2CC[C@@]1(C)C2(C)C)c1ccccc1C(=O)O[C@@H]1C[C@@H]2CC[C@@]1(C)C2(C)C (some centres unmarked) [NRB]
neurological function scores (MCAO/R model rats [2]; dose 15 mg/kg): 1.3 ± 0.5**$
neurological function scores compared with the NBP group (MCAO/R model rats [2]; dose 15 mg/kg): significant reductions
inhibition rate (vs model group) (MCAO/R model rats [2]; [5]): 61.8%
efficiency (vs NBP group) (MCAO/R model rats [2]; [5]): 43.5%
efficiency (vs NBP model group) (MCAO/R model rats [3]; [7]): 44.8%
infarction inhibition rate (vs model group) (MCAO/R model rats [3]; dose 15 mg/kg): 63.7%
infarction area (%) (MCAO/R model rats [3]; dose 15 mg/kg): 10.7 ± 7.9**$ %
cerebral infarction area compared with the NBP group (MCAO/R model rats [3]; dose 15 mg/kg): significant reductions

CCCCC(OC(=O)CCC(=O)O[C@@H]1C[C@@H]2CC[C@@]1(C)C2(C)C)c1ccccc1C(=O)O[C@@H]1C[C@@H]2CC[C@@]1(C)C2(C)C (some centres unmarked) [formula C]
activity (pre-experiments, comparison between conjugates) [1]: significantly better

CCCCC1OC(=O)c2ccccc21 (racemic) [NBP, (R/S)-3-n-butyl-1(3H)-isobenzofuranone, reference compound]
neurological function scores (MCAO/R model rats [2]; dose 5 mg/kg): 2.3 ± 1.0
inhibition rate (vs model group) (MCAO/R model rats [2]; neurological function score, dose 5 mg/kg): 32.4%
infarction inhibition rate (vs model group) (MCAO/R model rats [3]; dose 5 mg/kg): 34.2%
infarction area (%) (MCAO/R model rats [3]; dose 5 mg/kg): 19.4 ± 7.0 %

CCCC[C@@H]1OC(=O)c2ccccc21 [L-NBP, Levobutylphthalide, reference compound]
neurological function scores (MCAO/R model rats [2]; dose 2.5 mg/kg): 1.8 ± 0.6
inhibition rate (vs model group) (MCAO/R model rats [2]; [8]): 47.1%
efficiency (vs NBP group) (MCAO/R model rats [2]; [8]): 21.7%
efficiency (vs NBP model group) (MCAO/R model rats [3]; cerebral infarction area, dose 2.5 mg/kg): 18.6%
infarction inhibition rate (vs model group) (MCAO/R model rats [3]; dose 2.5 mg/kg): 46.4%
infarction area (%) (MCAO/R model rats [3]; dose 2.5 mg/kg): 15.8 ± 6.7 %

CCCC[C@H](OC(=O)CCC(=O)O[C@@H]1C[C@@H]2CC[C@@]1(C)C2(C)C)c1ccccc1C(=O)O[C@@H]1C[C@@H]2CC[C@@]1(C)C2(C)C [formula D]
activity (pre-experiments, comparison between conjugates) [1]: superior
